Where two headings read alike, the source gives them in different places.
Tests used:
Ebola virus = assay: microbe, parasite or virus in culture; assay type: cell-based; details: Zaire ebolavirus, Vero, read-out: EC50 Ebola virus
[1] = Phase 1 multiple dose study PTC299-ONC-002-HV in healthy volunteers (PK, safety); assay type: in vivo, human; details: for AUC: read-out: AUCO-4
Description: The PK of the 200 mg BID dosed for 7 days and 50 mg for 7 days was evaluated in a phase 1, escalating, multiple dose, safety, tolerability, and PK study, PTC299-ONC-002-HV (N=32; n=24 received PTC299 and 8 received placebo).
Study PTC299-ONC-002-HV had 2 stages; in Stage 1, doses ranged from 0.3 to 1.2 mg/kg BID, and in Stage 2, a 1.6 mg/kg TID dose was administered. Patients received the capsule formulation of PTC299 for 7 days in both stages. Dose of 200 mg tablet is approximately 1.2 mg/kg capsule whereas 50 mg tablet is approximately 0.3 mg/kg of capsule formulation.

[2] = test system: primary acute myeloid leukemia (AML) blast cells; assay: Primary AML blast cell assay with and without uridine; assay type: cell-based; details: uridine 0, 3, 10, 30, or 100 µM
Description: FIG. 5 is a plot showing the fraction of total blasts relative to DMSO control vs PTC299 concentration in nM, from an assay of the ability of PTC299 to suppress DHODH activity in the presence of increasing concentrations of uridine (0, 3, 10, 30, or 100 µM) .
The ability of PTC299 to inhibit DHODH was further tested using primary acute myeloid leukemia (AML) blast cells that are reliant upon the de novo pyrimidine nucleotide pathway to obtain pyrimidine nucleotides.

[3] = test system: HT1080 human fibrosarcoma cells; assay: De novo pyrimidine nucleotide synthesis from 15N-glutamine in HT1080 cells; assay type: cell-based; details: 100 nM
Excerpt: In this Example, fibrosarcoma cells were used to investigate the effect of PTC299 on pyrimidine nucleotide synthesis. Glutamine is an upstream precursor of dihydroorotic acid in the de novo pyrimidine synthesis pathway, as illustrated in FIG. 1.

[4] = test system: Respiratory syncytial virus; assay: Antiviral activity, Respiratory syncytial virus (Hep2 cells); assay type: cell-based; details: human respiratory syncytial virus, HEp-2
[5] = In vivo rat micronucleus assay
[6] = test system: TH2 cells plus venular endothelial cells (/TH2); assay: BioMAP profiling, /TH2 system; assay type: cell-based; details: Endothelial cell; for inhibition at 0.1 µM: /TH2, 100 nM
Description: (§1) The effect of PTC299 on cytokine production was assessed using BioMAP profiling (BioSeek, now part of Eurofins). The BioMAP system is comprised of complex co-cultures of primary peripheral blood mononuclear cells (PBMCs) with other cell types including B cells, fibroblasts, and endothelial cells allowing for the measurement of physiologically relevant biomarker readouts of the activity of a compound. Using this system, cytokine production was evaluated in the following models of primary cell disease models: • Peripheral blood mononuclear cells (PBMCs) plus venular endothelial cells (sAg) • PBMCs plus B cells (BT) • PBMCs plus fibroblasts (HDFSAg) • TH2 cells plus venular endothelial cells (/TH2).
(§2) Abbreviations in Table 4: BCR, B-cell receptor; BT System, co-culture of CD19+ B cells and PBMC that utilizes BCR stimulation and sub-mitogenic TCR stimulation; HDFSAg system, co-culture of human primary dermal fibroblasts and PBMC that is stimulated with sub-mitogenic TCR levels; IL, interleukin; PBMC, Peripheral Blood Mononuclear Cell; SAg system, co-culture of endothelial cells and PBMC stimulated with mitogenic levels of TCR ligands; TCR, T-cell receptor; /TH2 system, co-culture of endothelial cells and Th2 blasts stimulated with TCR ligands and cytokines; Th2, T helper type 2; VEGF, vascular endothelial growth factor.

[7] = test system: Hepatitis C virus (replicon); assay: Antiviral activity, Hepatitis C virus replicon (Huh7 cells); assay type: cell-based; details: Huh-7
[8] = test system: PBMCs plus venular endothelial cells (sAg); assay: BioMAP profiling, SAg system; assay type: cell-based; details: for inhibition at 0.01 µM: 10 nM; for inhibition at 0.1 µM: 100 nM
Description: as §1, §2

[9] = Bacterial mutagenicity (Ames) test
SARS-CoV-2 = SARS-CoV-2 infected Vero cells, N-protein antibody and DAPI staining; details: 30 nM, 300 nM
[10] = Single- and repeat-dose toxicology studies in dogs
[11] = Study PTC299-ONC-007-NF2: PTC299 plasma level; details: human, oral, 100 mg BID
[12] = Cytotoxicity in Vero cells by intracellular ATP; details: African green monkey
DHODH = assay: Study PTC299-ONC-007-NF2: serum DHO and VEGF in neurofibromatosis type 2 patients; details: 100 mg BID
SARS-CoV-2 USA-WA1/2020 = assay: PTC299 and remdesivir alone or combined, SARS-CoV-2 titer in Vero cells (TCID50); assay type: cell-based; details: 24 hours post infection
[13] = human, plasma, oral, 0.3 mg/kg, 0.3 mg/kg BID, Day 1, capsule
[14] = human, plasma, oral, 0.3 mg/kg, 0.3 mg/kg BID, Day 7, capsule
[15] = human, plasma, oral, 0.6 mg/kg, 0.6 mg/kg BID, Day 1, capsule
[16] = human, plasma, oral, 0.6 mg/kg, 0.6 mg/kg BID, Day 7, capsule
[17] = human, plasma, oral, 1.2 mg/kg, 1.2 mg/kg BID, Day 1, capsule
[18] = human, plasma, oral, 1.2 mg/kg, 1.2 mg/kg BID, Day 7, capsule
[19] = human, plasma, oral, 1.6 mg/kg, 1.6 mg/kg TID, Day 1, capsule
[20] = human, plasma, oral, 1.6 mg/kg, 1.6 mg/kg TID, Day 7, capsule

Q: Which EC50 (Ebola virus) does the source give for `COc1ccc([C@H]2c3[nH]c4ccc(Cl)cc4c3CCN2C(=O)Oc2ccc(Cl)cc2)cc1` [PTC299, 4-chlorophenyl (S)-6-chloro-1-(4-methoxyphenyl)-1,3,4,9-tetrahydro-2H-pyrido[3,4-b]indole-2-carboxylate] here?
A: 9 nM

Q: And the Tl/2 ([1]; 0.3 mg/kg BID, Day 7, capsule)?
A: 164 h

Q: What about the Tmax ([1]; 0.6 mg/kg BID, Day 1, capsule) of the same molecule?
A: 3.0 h

Q: What about the Tl/2 ([1]; 0.6 mg/kg BID, Day 7, capsule) of the same molecule?
A: 210 h

Q: And the Tl/2 ([1]; 1.2 mg/kg BID, Day 7, capsule)?
A: 228 h

Q: What about the Tl/2 ([1]; 1.6 mg/kg TID, Day 7, capsule) of the same molecule?
A: 225 h

Q: And the “SAEs during study PTC299-ONC-002-HV” value ([1]; healthy volunteers, 7 days, 0.3 to 1.2 mg/kg BID and 1.6 mg/kg TID)?
A: no SAEs occurred

Q: What about the Cmax [1, 13] of the same molecule?
A: 280 ng/mL

Q: And the AUC [1, 13]?
A: 4310 ng·h/mL

Q: What about the Tmax ([1]; human, plasma, oral, 0.3 mg/kg, 0.3 mg/kg BID, Day 1, capsule, read-out: Tmax) of the same molecule?
A: 4 h

Q: What about the Cmax [1, 14] of the same molecule?
A: 510 ng/mL

Q: What about the AUC [1, 14] of the same molecule?
A: 8440 ng·h/mL

Q: What about the Tmax ([1]; human, plasma, oral, 0.3 mg/kg, 0.3 mg/kg BID, Day 7, capsule, read-out: Tmax) of the same molecule?
A: 3.5 h

Q: What about the Cmax [1, 15] of the same molecule?
A: 710 ng/mL

Q: What about the AUC [1, 15] of the same molecule?
A: 10100 ng·h/mL

Q: What about the Cmax [1, 16] of the same molecule?
A: 1110 ng/mL

Q: What about the AUC [1, 16] of the same molecule?
A: 18600 ng·h/mL

Q: And the Tmax ([1]; human, plasma, oral, 0.6 mg/kg, 0.6 mg/kg BID, Day 7, capsule, read-out: Tmax)?
A: 4 h

Q: What about the Cmax [1, 17] of the same molecule?
A: 1140 ng/mL

Q: And the AUC [1, 17]?
A: 18000 ng·h/mL

Q: And the Tmax ([1]; human, plasma, oral, 1.2 mg/kg, 1.2 mg/kg BID, Day 1, capsule, read-out: Tmax)?
A: 3.5 h

Q: And the Cmax [1, 18]?
A: 2110 ng/mL

Q: And the AUC [1, 18]?
A: ~32900 ng·h/mL

Q: And the Tmax ([1]; human, plasma, oral, 1.2 mg/kg, 1.2 mg/kg BID, Day 7, capsule, read-out: Tmax)?
A: 4 h

Q: And the Cmax [1, 19]?
A: 1670 ng/mL

Q: What about the AUC [1, 19] of the same molecule?
A: 37100 ng·h/mL

Q: What about the Cmax [1, 20] of the same molecule?
A: 3530 ng/mL

Q: And the AUC [1, 20]?
A: 78600 ng·h/mL

Q: And the “effect of exogenous uridine on PTC299-dependent cytotoxicity” value [2]?
A: reversal of the effects of PTC299-dependent cytotoxicity by the addition of exogenous uridine

Q: What about the “suppression of de novo pyrimidine nucleotide biosynthesis” value [3] of the same molecule?
A: resulted in suppression of de novo pyrimidine nucleotide biosynthesis

Q: What about the EC50 [4] of the same molecule?
A: 4 nM

Q: And the “in vivo rat micronucleus assay” value [5]?
A: negative

Q: What about the inhibition at 0.01 µM ([6]; /TH2, 10 nM, read-out: % Inhibition MCP-1 (converted)) of the same molecule?
A: 21%

Q: And the inhibition at 0.1 µM ([6]; read-out: % Inhibition MCP-1 (converted))?
A: 25%

Q: What about the inhibition at 0.1 µM ([6]; read-out: % Inhibition sIL-17) of the same molecule?
A: 23%

Q: What about the EC50 [7] of the same molecule?
A: 36 nM

Q: What about the inhibition at 0.01 µM ([8]; read-out: % Inhibition IL-8) of the same molecule?
A: 27%

Q: What about the inhibition at 0.01 µM ([8]; read-out: % Inhibition MCP-1) of the same molecule?
A: 31%

Q: What about the inhibition at 0.1 µM ([8]; read-out: % Inhibition CD40) of the same molecule?
A: 29%

Q: What about the inhibition at 0.1 µM ([8]; read-out: % Inhibition IL-8) of the same molecule?
A: 29%

Q: What about the inhibition at 0.1 µM ([8]; read-out: % Inhibition MCP-1) of the same molecule?
A: 45%

Q: What about the inhibition at 0.1 µM ([8]; read-out: % Inhibition Proliferation) of the same molecule?
A: 23%

Q: What about the “bacterial mutagenicity (Ames) test” value [9] of the same molecule?
A: negative

Q: What about the “viability of the cells (DAPI stain)” value (SARS-CoV-2; 3 µM) of the same molecule?
A: not cytotoxic

Q: What about the “viral levels by N-protein antibody staining” value (SARS-CoV-2; 3 µM versus untreated controls) of the same molecule?
A: Increasing the PTC299 concentration led to greater reductions

Q: And the “alanine aminotransferase, aspartate aminotransferase, and total bilirubin” value ([10]; dogs dosed through 28 days)?
A: no increases

Q: What about the “histopathologic findings in the liver” value ([10]; dogs dosed through 28 days) of the same molecule?
A: no histopathologic findings in the liver

Q: What about the PTC299-related mortality ([10]; dogs, toxicology studies) of the same molecule?
A: No PTC299-related mortality was observed

Q: What about the concentration at 4 h [11] of the same molecule?
A: 1900 ng/mL

Q: And the CC50 at 48 h [12]?
A: > 10000 nM

Q: And the “serum VEGF levels” value (DHODH; 8 weeks versus pre-dose)?
A: significantly reduced after 8 weeks of treatment

Q: And the “serum DHO levels” value (DHODH; post-dose versus pre-dose)?
A: elevated at 8 or 16 weeks

Q: And the “reduction in SARS-CoV-2 titer” value (SARS-CoV-2 USA-WA1/2020; PTC299 250 nM)?
A: 96%

Q: And the “reduction in SARS-CoV-2 titer” value (SARS-CoV-2 USA-WA1/2020; PTC299 500 nM)?
A: 98%
